Patent EP4729516A1, “S[…] DERIVATIVE, INTERMEDIATE, PREPARATION METHOD THEREFOR AND USE THEREOF” (Jiangsu NHWA Pharmaceutical Co., Ltd, priority 2023, dated 2024)
Structures can show the parent of a compound that is named as a salt.

Key:
[1] = system: Male SD rats; assay: Hypnotic efficacy: loss of righting reflex (LORR) in rats; format: in vivo; details: for ED50: Rattus norvegicus, tail vein injection over 10 s, sequential method; for induce sleep in rats: time to induce sleep, dose twice the ED50
Protocol: The sequential method was used to determine the ED50 (median effective dose) for the loss of righting reflex (LORR) by the compounds of the present disclosure in rats: Male SD rats, weighing 200-300 grams, were used. Each compound was dissolved in normal saline and administered via tail vein injection at an initial dose at a constant injection rate over 10 s (one rat per dose). […] This process was repeated, and the results were recorded in the AOT425 Statpm software until the software could calculate the ED50, at which point the experiment was terminated. The hypnotic efficacy of the compounds of the present disclosure was evaluated using ED50 with lower ED50 values indicating stronger efficacy.
Comparison of onset time and duration: Male SD rats, weighing 200-300 grams, were used. Each compound was dissolved in normal saline and administered via tail vein injection at a constant injection rate over 10 s, with 10 rats per group. […] The onset time and duration were recorded.
The onset time refers to the period from the completion of injection to when the rat is placed in a supine position, with the criterion for loss of righting reflex defined as the rat's inability to spontaneously revert to a prone position using its forelimbs and maintained for ≥10 s, which serves as an indicator of compound efficacy; the duration refers to the sustained period during which the rat remains in a state of losing righting reflex. The spontaneous recovery of the righting reflex in the rat is considered the cessation of the efficacy.

[2] = system: Male SD rats; assay: Fluctuations in blood pressure and heart rate after administration; format: in vivo; details: for maximum decrease rates of HR / recovery of HR / maximum increase rates of MAP: compared with dexmedetomidine hydrochloride; for HR decrease Maximum decrease rate / MAP decrease Maximum decrease rate / MAP increase Maximum increase rate: dose as in Test Example 3, within 90 min; for decreases in MAP: no significant decreases greater than the stated value
Protocol: Male SD rats, weighing 250-300 g, with 4 rats per group, were maintained under general anesthesia by isoflurane inhalation. Femoral artery cannulation was performed, and blood pressure and heart rate were monitored using a Powerlab data acquisition and analysis system. 30 min after the baseline values stabilized, the baseline mean arterial pressure (MAP0) and baseline heart rate (HR0) were measured. The rats were given a solution of each compound in normal saline via tail vein injection (the dose of each compound was the same as in Test Example 3, with rapid intravenous injection over 10 s). Blood pressure and heart rate were continuously recorded for 90 min. MAP^+ (the difference between the maximum mean arterial pressure (MAPmax) and MAP0), MAP^-(the difference between the minimum mean arterial pressure (MAPmin) and MAP0), and HR^- (the difference between the minimum heart rate (HRmin) and HR0) within 90 min were calculated. For calculation, the maximum increase rate of mean arterial pressure = MAP^+/MAP0 × 100%; the maximum decrease rate of mean arterial pressure = MAP^-/MAP0 × 100%; and the maximum decrease rate of heart rate = HR^-/HR0 × 100%.

[3] = loss of righting reflex, male SD rats
[4] = in words, compared with dexmedetomidine hydrochloride, rats
[5] = loss of righting reflex, male SD rats, tail vein injection, dose twice the ED50, 10 rats per group
[6] = isoflurane-anesthetized male SD rats, tail vein injection, dose as in Test Example 3
[7] = isoflurane-anesthetized male SD rats, tail vein injection

| SMILES | ED50 [1, 3] [mg/kg] | Duration [1, 4] | hypnotic onset time [1, 4] | Duration [1, 5] [S] | Onset time [1, 5] [S] | induce sleep in rats ([1]; rats) [min] | maximum decrease rates of HR ([2]; in words, rats) | recovery of HR ([2]; in words, rats) | HR decrease Duration [2, 6] [min] | MAP increase Duration [2, 6] [min] | HR decrease Maximum decrease rate [2, 7] [%] | MAP decrease Maximum decrease rate [2, 7] [%] | MAP increase Maximum increase rate [2, 7] [%] | decreases in MAP ([2]; rats) [%] | maximum increase rates of MAP ([2]; in words, rats) | change in MAP after administration ([2]; in words, initial increase followed by a decrease, rats) | MAP decrease Duration [2, 6] [min] | sustained reductions in MAP and HR ([2]; rats, recording for 90 min) [min] |
| --- | --- | --- | --- | --- | --- | --- | --- | --- | --- | --- | --- | --- | --- | --- | --- | --- | --- | --- |
| CC(c1c[nH]cn1)c1cccc2c1C=CC2 (stereo not drawn) [Compound 8, 4-[1-(1H-Inden-4-yl)ethyl]-1H-imidazole] | 0.0213 | significantly shorter | comparable to or slightly longer | 635.80±697.73 | 161.70±101.69 | ≤ 5 | lower | faster | 60 | 2 | 24.9±10.8 | 7.1±4.1 | 32.0±10.5 | ≤ 10 | – | – | – | – |
| CC(c1c[nH]cn1)c1cccc2c1OCC2 (stereo not drawn) [Compound 10, 4-[1-(2,3-Dihydrobenzofuran-7-yl)ethyl]-1H-imidazole] | 0.0088 | significantly shorter | comparable to or slightly longer | 508.10±572.65 | 219.90±93.88 | ≤ 5 | lower | faster | 30 | 2 | 24.2±5.7 | 7.9±7.4 | 17.3±5.0 | ≤ 10 | lower | – | – | – |
| C[C@H](c1c[nH]cn1)c1cc(F)cc2c1C=CC2 [Compound 11-b, 4-[(1S)-1-(6-fluoro-1H-inden-4-yl)ethyl]-1H-imidazole] | 0.0256 | significantly shorter | significantly shorter | 666.00±376.66 | 45.20±7.38 | – | lower | faster | 60 | 2 | 31.2±3.19 | 6.7±4.02 | 24.1±4.96 | ≤ 10 | lower | – | – | – |
| CC(c1c[nH]cn1)c1cccc2c1C=CC2(C)C (stereo not drawn) [Compound 17, 4-[1-(1,1-Dimethyl-1H-inden-4-yl)ethyl]-1H-imidazole] | 0.276 | significantly shorter | comparable to or slightly longer | 1602.50±681.51 | 101.80±154.86 | ≤ 5 | – | – | – | – | – | – | – | – | – | – | – | – |
| C[C@H](c1c[nH]cn1)c1cccc2c1CCC2 [Compound 31-b, (S)-4-[1-(2,3-dihydro-1H-inden-4-yl)ethyl]-1H-imidazole] | 0.0268 | significantly shorter | comparable to or slightly longer | 1147.78±656.35 | 100.44±49.16 | ≤ 5 | lower | faster | 60 | 2 | 30.2±7.7 | 5.3±4.6 | 24.0±11.1 | ≤ 10 | lower | – | – | – |
| C[C@H](c1c[nH]cn1)c1cc(F)cc2c1C(=O)CC2 [Compound 38-b, (S)-7-(1-(1H-imidazol-4-yl)ethyl)-5-fluoro-2,3-dihydro-1H-inden-1-one] | 0.032 | significantly shorter | comparable to or slightly longer | 228.22±158.93 | 102.44±52.34 | ≤ 5 | – | – | – | – | – | – | – | – | – | – | – | – |
| Cc1cccc([C@H](C)c2cnc[nH]2)c1C [Dexmedetomidine hydrochloride, reference compound] | 0.01 | – | – | 3275.10±796.79 | 77.80±28.56 | – | – | – | 90 | 2 | 33.8±5.3 | 16.5±14.6 | 27.7±4.1 | – | – | biphasic change in MAP | 90 | 90 |
